# Data as given in the supplement of paper PMC10733146.
# Key:
# Test in all cases: viability relative to DMSO control (fraction); higher = less drug effect (more viable cells)
# Details in all cases: 48 h
# SGC 0946 = compound: CC(C)N(CCCNC(=O)Nc1ccc(C(C)(C)C)cc1)C[C@H]1O[C@@H](n2cc(Br)c3c(N)ncnc32)[C@H](O)[C@@H]1O [SGC 0946]
# How it was run: (§1)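 Cells were incubated for 48 h at 37 °C and 5% CO2 in RPMI-1640 with penicillin/streptomycin, L-glutamine and human serum, at 4 × 10^4 cells per well in 384-well plates with compounds pre-plated at five concentrations, one well each. These were primary mononuclear tumour cells, fresh or cryopreserved, Ficoll-isolated from blood or bone marrow or obtained from processed lymph node. Viability values are CellTiter-Glo luminescence relative to the median of 16 inner DMSO wells.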
# Roscovitine = compound: CC[C@H](CO)Nc1nc(NCc2ccccc2)c2ncn(C(C)C)c2n1 [Roscovitine]
# How it was run: as §1
# Vindesine = compound: CC[C@]1(O)C[C@@H]2CN(CCc3c([nH]c4ccccc34)[C@@](C(=O)OC)(c3cc4c(cc3OC)N(C)[C@H]3[C@@](O)(C(N)=O)[C@H](O)[C@]5(CC)C=CCN6CC[C@]43[C@@H]65)C2)C1 [Vindesine]
# How it was run: as §1
# Midostaurin hydrate = compound: CO[C@@H]1[C@H](N(C)C(=O)c2ccccc2)C[C@H]2O[C@]1(C)n1c3ccccc3c3c4c(c5c6ccccc6n2c5c31)C(=O)NC4 [Midostaurin hydrate]
# How it was run: as §1
# Everolimus = compound: CO[C@H]1C[C@@H]2CC[C@@H](C)[C@@](O)(O2)C(=O)C(=O)N2CCCC[C@H]2C(=O)O[C@H]([C@H](C)C[C@@H]2CC[C@@H](OCCO)[C@H](OC)C2)CC(=O)[C@H](C)/C=C(\C)[C@@H](O)[C@@H](OC)C(=O)[C@H](C)C[C@H](C)/C=C/C=C/C=C/1C [Everolimus]
# How it was run: as §1
# Idasanutlin (RS7388) = compound: COc1cc(C(=O)O)ccc1NC(=O)[C@@H]1N[C@@H](CC(C)(C)C)[C@](C#N)(c2ccc(Cl)cc2F)[C@H]1c1cccc(Cl)c1F [Idasanutlin (RS7388)]
# How it was run: as §1
# Etoposide = compound: COc1cc([C@@H]2c3cc4c(cc3[C@@H](O[C@@H]3O[C@@H]5CO[C@@H](C)O[C@H]5[C@H](O)[C@H]3O)[C@H]3COC(=O)[C@H]23)OCO4)cc(OC)c1O [Etoposide]
# How it was run: as §1
# Tofacitinib = compound: C[C@@H]1CCN(C(=O)CC#N)C[C@@H]1N(C)c1ncnc2[nH]ccc12 [Tofacitinib]
# How it was run: as §1
# Duvelisib = compound: C[C@H](Nc1ncnc2nc[nH]c12)c1cc2cccc(Cl)c2c(=O)n1-c1ccccc1 [Duvelisib]
# How it was run: as §1
# Bendamustine = compound: Cn1c(CCCC(=O)O)nc2cc(N(CCCl)CCCl)ccc21 [Bendamustine]
# How it was run: as §1
# Pomalidomide = compound: Nc1cccc2c1C(=O)N(C1CCC(=O)NC1=O)C2=O [Pomalidomide]
# How it was run: as §1
# [1] = compound: O=C(Nc1ccc2[nH]nc(-c3ccncc3)c2c1)[C@@H]1CCN(CC(=O)N2CCN(c3ccc(-c4ncccn4)cc3)CC2)C1
# How it was run: as §1
# Chlorambucil = compound: O=C(O)CCCc1ccc(N(CCCl)CCCl)cc1 [Chlorambucil]
# How it was run: as §1
# Entospletinib = compound: c1cn2cc(-c3ccc4cn[nH]c4c3)nc(Nc3ccc(N4CCOCC4)cc3)c2n1 [Entospletinib]
# How it was run: as §1
test system,measurement,setting,value
primary AML patient cells (S079),viability,SGC 0946; 0.024 µM,0.905
same,viability,SGC 0946; 0.12 µM,0.896
same,viability,SGC 0946; 0.6 µM,0.934
same,viability,SGC 0946; 3 µM,0.894
same,viability,SGC 0946; 15 µM,0.788
same,viability,Roscovitine; 0.032 µM,0.895
same,viability,Roscovitine; 0.16 µM,0.985
same,viability,Roscovitine; 0.8 µM,0.976
same,viability,Roscovitine; 4 µM,0.936
same,viability,Roscovitine; 20 µM,0.682
same,viability,Vindesine; 0.016 µM,0.888
same,viability,Vindesine; 0.08 µM,0.842
same,viability,Vindesine; 0.4 µM,0.718
same,viability,Vindesine; 2 µM,0.621
same,viability,Vindesine; 10 µM,0.562
same,viability,Midostaurin hydrate; 0.024 µM,0.999
same,viability,Midostaurin hydrate; 0.12 µM,1.02
same,viability,Midostaurin hydrate; 0.6 µM,1.14
same,viability,Midostaurin hydrate; 3 µM,1.05
same,viability,Midostaurin hydrate; 15 µM,0.685
same,viability,Everolimus; 0.0032 µM,0.804
same,viability,Everolimus; 0.016 µM,0.805
same,viability,Everolimus; 0.08 µM,0.795
same,viability,Everolimus; 0.4 µM,0.798
same,viability,Everolimus; 2 µM,0.801
same,viability,Idasanutlin (RS7388); 0.032 µM,0.809
same,viability,Idasanutlin (RS7388); 0.16 µM,0.865
same,viability,Idasanutlin (RS7388); 0.8 µM,0.747
same,viability,Idasanutlin (RS7388); 4 µM,0.583
same,viability,Idasanutlin (RS7388); 20 µM,0.523
same,viability,Etoposide; 0.032 µM,1.04
same,viability,Etoposide; 0.16 µM,0.961
same,viability,Etoposide; 0.8 µM,0.892
same,viability,Etoposide; 4 µM,0.892
same,viability,Etoposide; 20 µM,0.672
same,viability,Tofacitinib; 0.024 µM,0.898
same,viability,Tofacitinib; 0.12 µM,0.802
same,viability,Tofacitinib; 0.6 µM,0.764
same,viability,Tofacitinib; 3 µM,0.751
same,viability,Tofacitinib; 15 µM,0.766
same,viability,Duvelisib; 0.0016 µM,0.893
same,viability,Duvelisib; 0.008 µM,0.858
same,viability,Duvelisib; 0.04 µM,0.783
same,viability,Duvelisib; 0.2 µM,0.764
same,viability,Duvelisib; 1 µM,0.67
same,viability,Bendamustine; 0.032 µM,1.01
same,viability,Bendamustine; 0.16 µM,1.02
same,viability,Bendamustine; 0.8 µM,0.997
same,viability,Bendamustine; 4 µM,1.04
same,viability,Bendamustine; 20 µM,0.952
same,viability,Pomalidomide; 0.0032 µM,0.97
same,viability,Pomalidomide; 0.016 µM,1.05
same,viability,Pomalidomide; 0.08 µM,1.09
same,viability,Pomalidomide; 0.4 µM,1.16
same,viability,Pomalidomide; 2 µM,1.08
same,viability,[1]; 0.008 µM,0.738
same,viability,[1]; 0.04 µM,0.673
same,viability,[1]; 0.2 µM,0.624
same,viability,[1]; 1 µM,0.519
same,viability,[1]; 5 µM,0.462
same,viability,Chlorambucil; 0.032 µM,0.955
same,viability,Chlorambucil; 0.16 µM,0.996
same,viability,Chlorambucil; 0.8 µM,1
same,viability,Chlorambucil; 4 µM,0.97
same,viability,Chlorambucil; 20 µM,0.709
same,viability,Entospletinib; 0.024 µM,1.01
same,viability,Entospletinib; 0.12 µM,0.936
same,viability,Entospletinib; 0.6 µM,1.04
same,viability,Entospletinib; 3 µM,0.968
same,viability,Entospletinib; 15 µM,0.965
primary CLL patient cells (S043),viability,SGC 0946; 0.024 µM,0.87
same,viability,SGC 0946; 0.12 µM,0.88
same,viability,SGC 0946; 0.6 µM,0.877
same,viability,SGC 0946; 3 µM,0.872
same,viability,SGC 0946; 15 µM,0.756
same,viability,Roscovitine; 0.032 µM,0.869
same,viability,Roscovitine; 0.16 µM,0.972
same,viability,Roscovitine; 0.8 µM,0.952
same,viability,Roscovitine; 4 µM,1.08
same,viability,Roscovitine; 20 µM,0.901
same,viability,Vindesine; 0.016 µM,0.865
same,viability,Vindesine; 0.08 µM,0.82
same,viability,Vindesine; 0.4 µM,0.844
same,viability,Vindesine; 2 µM,0.666
same,viability,Vindesine; 10 µM,0.605
same,viability,Midostaurin hydrate; 0.024 µM,0.923
same,viability,Midostaurin hydrate; 0.12 µM,0.911
same,viability,Midostaurin hydrate; 0.6 µM,1.06
same,viability,Midostaurin hydrate; 3 µM,1.04
same,viability,Midostaurin hydrate; 15 µM,0.57
same,viability,Everolimus; 0.0032 µM,0.823
same,viability,Everolimus; 0.016 µM,0.851
same,viability,Everolimus; 0.08 µM,0.791
same,viability,Everolimus; 0.4 µM,0.831
same,viability,Everolimus; 2 µM,0.793
same,viability,Idasanutlin (RS7388); 0.032 µM,0.915
same,viability,Idasanutlin (RS7388); 0.16 µM,0.94
same,viability,Idasanutlin (RS7388); 0.8 µM,0.792
same,viability,Idasanutlin (RS7388); 4 µM,0.424
same,viability,Idasanutlin (RS7388); 20 µM,0.176
same,viability,Etoposide; 0.032 µM,1.12
same,viability,Etoposide; 0.16 µM,1.02
same,viability,Etoposide; 0.8 µM,0.987
same,viability,Etoposide; 4 µM,1.01
same,viability,Etoposide; 20 µM,0.813
same,viability,Tofacitinib; 0.024 µM,0.937
same,viability,Tofacitinib; 0.12 µM,0.965
same,viability,Tofacitinib; 0.6 µM,0.961
same,viability,Tofacitinib; 3 µM,0.969
same,viability,Tofacitinib; 15 µM,1.14
same,viability,Duvelisib; 0.0016 µM,0.768
same,viability,Duvelisib; 0.008 µM,0.759
same,viability,Duvelisib; 0.04 µM,0.704
same,viability,Duvelisib; 0.2 µM,0.739
same,viability,Duvelisib; 1 µM,0.677
same,viability,Bendamustine; 0.032 µM,0.993
same,viability,Bendamustine; 0.16 µM,1.04
same,viability,Bendamustine; 0.8 µM,0.96
same,viability,Bendamustine; 4 µM,1.01
same,viability,Bendamustine; 20 µM,0.743
same,viability,Pomalidomide; 0.0032 µM,0.98
same,viability,Pomalidomide; 0.016 µM,1.07
same,viability,Pomalidomide; 0.08 µM,1.08
same,viability,Pomalidomide; 0.4 µM,1.02
same,viability,Pomalidomide; 2 µM,1.03
same,viability,[1]; 0.008 µM,0.757
same,viability,[1]; 0.04 µM,0.734
same,viability,[1]; 0.2 µM,0.683
same,viability,[1]; 1 µM,0.661
same,viability,[1]; 5 µM,0.629
same,viability,Chlorambucil; 0.032 µM,0.942
same,viability,Chlorambucil; 0.16 µM,0.954
same,viability,Chlorambucil; 0.8 µM,0.977
same,viability,Chlorambucil; 4 µM,0.859
same,viability,Chlorambucil; 20 µM,0.441
same,viability,Entospletinib; 0.024 µM,0.988
same,viability,Entospletinib; 0.12 µM,0.936
same,viability,Entospletinib; 0.6 µM,0.94
same,viability,Entospletinib; 3 µM,0.977
same,viability,Entospletinib; 15 µM,0.947
